One test deals with Cyclophilin B (CypB) (Homo sapiens (Human), UniProt P23284). The test can be described thus: Cyclophilin PPIase enzymatic assay (chymotrypsin coupled), CypB. Format: biochemical. The following applies: for Inhibition (%): activity test at 100 μM on CypB; for IC50: CypB. On the procedure: (§1) Cyclophilin A, B protein carrying a hexahistidine tag (His-Tag) at the C-terminus, were expressed in Escherichia coli and purified. Briefly, cultures of C41(DE3) cells were grown at 37° C. for ˜1 h until the culture reached an optical density of 0.6 at 600 nm, and induced with 1 mM isopropyl β-D-thiogalactoside for 4 h at 37° C. or overnight at 22° C. for cylophilin A and cyclophilin B, respectively. Cell pellets (1 L) were resuspended in a lysis buffer (20 mM NaH2PO4 (pH 7.8), 300 mM NaCl, 7 mM β-mercaptoethanol, 1 mg/ml lysozyme, 0.1 U/μl Desoxyribonuclease and complete protease inhibitor tablets (Roche)). The sonicated cell lysates were clarified by centrifugation at 10 000 g for 45 min at 4° C., chromatographed on a Ni-NTA column and washed with buffer: (20 mM NaH2PO4 (pH7.8), 300 mM NaCl, 50 mM imidazole, 7 mM β-mercaptoethanol, 10% glycerol). The bound protein was eluted in 1 ml fractions with buffer: (20 mM NaH2PO4 (pH7.8), 300 mM NaCl, 250 mM imidazole, 7 mM β-mercaptoethanol, 10% glycerol) and monitored by the Bradford colorimetric assay. The purity of each cyclophilin was determined by Coomassie-stained SDS-PAGE analysis.
(§2) The reaction was initiated by adding 20 μL of 3.2 mM peptide substrate (Suc-Ala-Ala-cis-Pro-Phe-pNA) in LiCl/TFE solution with rapid inversion. […] The final concentration of LiCl in the assay was 20 mM; TFE was present at a concentration of 4% (v/v). Absorbance readings were collected every 1 s by spectrophotometer. The inhibition assays of compounds were performed in the same manner as mentioned above. A 5 μL aliquot of the compounds in DMSO was added to the cyclophilin solution in the assay buffer. The assay was started by the addition of the substrate. Cyclosporine A was used as control in all measurement. The percentage inhibition of cyclophilin PPiase activity were calculated from slopes and values obtained represent an average of at least two independent measurements.

For another test, the target named is Cyclophilin A (CypA) (Homo sapiens (Human), UniProt P62937). The test can be described thus: Cyclophilin PPIase enzymatic assay (chymotrypsin coupled), CypA. Format: biochemical. On the procedure:
as §1, §2

[1] abbreviates: activity test at 100 μM on CypA, read-out: Inhibition (%).
[2] abbreviates: activity test at 100 μM on CypA.

The source of these data is US8901295B2 (Institut National de la Sante et de la Recherche Medicale …, priority 2009, dated 2014).

Like-named read-outs stand apart in the source and are kept apart here.

Usually inhibition stands for the relative decrease from the control value, in per cent. In general, IC50 refers to the midpoint of a concentration-inhibition curve. Read a high IC50 as lower potency.

Cyclophilin B (CypB), sequence (P23284 34-216): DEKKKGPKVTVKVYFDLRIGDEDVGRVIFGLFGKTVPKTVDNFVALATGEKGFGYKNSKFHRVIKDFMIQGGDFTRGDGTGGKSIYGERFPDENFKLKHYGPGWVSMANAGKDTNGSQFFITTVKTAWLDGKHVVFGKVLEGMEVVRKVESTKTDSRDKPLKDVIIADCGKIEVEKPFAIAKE
Cyclophilin A (CypA), sequence (P62937 whole entry): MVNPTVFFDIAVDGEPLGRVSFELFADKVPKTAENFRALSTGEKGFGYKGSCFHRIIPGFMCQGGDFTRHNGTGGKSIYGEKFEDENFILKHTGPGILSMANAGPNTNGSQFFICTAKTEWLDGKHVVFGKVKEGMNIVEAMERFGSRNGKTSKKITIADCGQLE

Regarding “2-(3-(4-aminobenzyl)ureido)-N-2-phenyl-ethyl-N-methylacetamide [Compound F551]”, the “Inhibition (%)” value at Cyclophilin B (CypB) was 20.8%.

As to `CCOC(=O)CNC(=O)NCc1cccc2ccccc12` [Compound F490, ethyl 2-(3-((napht-1-yl)methyl)ureido)acetate], at Cyclophilin B (CypB), the “Inhibition (%)” value worked out at 33.1%.

Consider `CCOC(=O)CNC(=O)NCc1ccc(F)cc1` [Compound F513, ethyl 2-(3-(4-fluorobenzyl)ureido)acetate], for which, on Cyclophilin B (CypB), the inhibition at 100 µM amounted to 23.3%.

At Cyclophilin B (CypB), `CCOC(=O)CNC(=O)NCc1cccc(C(F)(F)F)c1` [Compound F514, ethyl 2-(3-(3-trifluoromethylbenzyl)ureido)acetate] showed an inhibition at 100 µM of 19.5%.

Compound `CCOC(=O)CNC(=O)NCCNc1ccccc1` [Compound F515, ethyl 2-(3-(2-(phenylamino)ethyl)ureido)acetate] showed an inhibition at 100 µM against Cyclophilin B (CypB) of 18.2%.

`CCOC(=O)CNC(=O)NCCc1ccc(O)cc1` [Compound F517, ethyl 2-(3-(4-hydroxyphenylethyl)ureido)acetate]: the inhibition at 100 µM against Cyclophilin B (CypB) was 20%.

In the case of `CCOC(=O)CNC(=O)NCc1cc(Cl)cc(Cl)c1` [Compound F520, ethyl 2-(3-(3,5-dichlorobenzyl)ureido)acetate], the inhibition at 100 µM against Cyclophilin B (CypB) turned out to be 18.9%.

Take `CCOC(=O)CNC(=O)NCc1cccc(-c2ncccn2)c1` [Compound F524]: the “Inhibition (%)” value on Cyclophilin B (CypB) is on record as 15.4%.

For `CCOC(=O)CNC(=O)NCc1cccc2c1OCCO2` [Compound F525, ethyl 2-(3-((2,3-dihydrobenzo[b][1,4]dioxin-5-yl)methyl)ureido)acetate], on Cyclophilin B (CypB), at 100 µM the inhibition was 21.6%.

`CCOC(=O)CNC(=O)NCc1cc(C)on1` [Compound F526, ethyl 2-(3-((5-methylisoxazol-3-yl)methyl)ureido)acetate] returned an inhibition at 100 µM on Cyclophilin B (CypB) of 21.2%.

`CCOC(=O)CNC(=O)NCc1ccccc1-c1ccco1` [Compound F528]: on Cyclophilin B (CypB), the “Inhibition (%)” value is 38.9%.

For `CCOC(=O)CNC(=O)NCc1ccc(N)nc1` [Compound F536, ethyl 2-(3-((6-aminopyridin-3-yl)methyl)ureido)acetate], the inhibition at 100 µM on Cyclophilin B (CypB) worked out at 47.6%.

Regarding `Nc1ccc(CNC(=O)NCC(=O)N2CCCC2)cc1` [Compound F537, 1-(4-aminobenzyl)-3-(2-pyrrolidin-1-yl-2-oxoethyl)urea], the inhibition at 100 µM came to 33.4% against Cyclophilin A (CypA) and 24.5% against Cyclophilin B (CypB).

In the case of `CCOC(=O)CNC(=O)NCc1nc2ccccc2[nH]1` [Compound F538, ethyl 2-(3-((1H-benzo[d]imidazol-2-yl)methyl)ureido)acetate], the inhibition at 100 µM on Cyclophilin A (CypA) (setting [1]) worked out at 15.5%.

For `Nc1ccc(CNC(=O)NCC(=O)N2CCCC(O)C2)cc1` (stereo not drawn) [Compound F540, 1-(4-aminobenzyl)-3-(2-(3-hydroxy-piperidin-1-yl)-2-oxoethyl)urea], at Cyclophilin A (CypA) (setting [1]), the inhibition at 100 µM was 32.6%.

As to `Nc1ccc(CNC(=O)NCC(=O)N2CCCCC2C(=O)N2CCCC2)cc1` (stereo not drawn) [Compound F542], at Cyclophilin A (CypA) (setting [2]), the “Inhibition (%)” value came to 60.1%. Besides, on Cyclophilin B (CypB), the midpoint of inhibition, the IC50, lay at 36.6 µM and the “Inhibition (%)” value is listed as 58.5%.

Consider `Nc1ccc(CNC(=O)NCC(=O)N2CCCCC2)cc1` [Compound F543, 1-(4-aminobenzyl)-3-(2-oxo-2-(piperin-1-yl)ethyl)urea], for which the “Inhibition (%)” value turned out to be 27.7% on Cyclophilin A (CypA) (setting [2]) and 37.5% on Cyclophilin B (CypB).

`COC(=O)[C@H]1CCCN1C(=O)CNC(=O)NCc1ccc(N)cc1` [Compound F558, (R)-methyl 1-(2-(3-(4-aminobenzyl)ureido)acetyl)pyrrolidine-2-carboxylate] came in with an inhibition at 100 µM on Cyclophilin B (CypB) of 25.9%.

As for `Nc1ccc(CNC(=O)NCC(=O)NCc2cccc(CN3CCOCC3)c2)cc1` [Compound F559], the “Inhibition (%)” value at Cyclophilin B (CypB) is 21.9%.

Regarding `Nc1ccc(CNC(=O)NCC(=O)N2CCC(O)CC2)cc1` [Compound F561, 1-(4-aminobenzyl)-3-(2-(4-hydroxy-piperidin-1-yl)-2-oxoethyl)urea], at Cyclophilin B (CypB), the inhibition at 100 µM amounted to 15.1%.

Take `Nc1ccc(CNC(=O)NCC(=O)NCc2cccc(-n3cncn3)c2)cc1` [Compound F562, 2-(3-(4-aminobenzyl)ureido)-N-(3-(1H,1,2,4-triazol-1-yl)benzyl)acetamide]: the “Inhibition (%)” value on Cyclophilin B (CypB) was determined as 28.0%.

Regarding `COc1cccc(CNC(=O)CNC(=O)NCc2ccc(N)cc2)c1` [Compound F563, 2-(3-(4-aminobenzyl)ureido)-N-3-methoxybenzylacetamide], the inhibition at 100 µM against Cyclophilin B (CypB) was 16.4%.

Turning to `CCOC(=O)CNC(=O)NCc1c(F)cccc1NC(C)=O` [Compound F565, ethyl 2-(3-(2-acetamido-6-fluorobenzyl)ureido)acetate], at Cyclophilin B (CypB), the inhibition at 100 µM amounted to 34.5%.

At Cyclophilin B (CypB), `CCOC(=O)CNC(=S)NCc1ccc(N)nc1` [Compound F569, ethyl 2-(3-((6-aminopyridin-3-yl)methyl)thioureido)acetate] came in with an inhibition at 100 µM of 17.1%.

At Cyclophilin B (CypB), `CCOC(=O)CNC(=O)NCc1ccc(O)cc1O` [Compound F572, ethyl 2-(3-(2,4-dihydroxybenzyl)ureido)acetate] displayed an inhibition at 100 µM of 27.6%.

`CCOC(=O)CNC(=O)NCc1ccc(O)cc1` [Compound F576, ethyl 2-(3-(4-hydroxybenzyl)ureido)acetate]: at Cyclophilin B (CypB), the inhibition at 100 µM came out at 18.4%.

Turning to `CCOC(=O)CNC(=O)NCc1ccc(N)c2ccccc12` [Compound F577, ethyl 2-(3-((4-aminonapht-1-yl)methyl)ureido)acetate], at Cyclophilin B (CypB), the “Inhibition (%)” value was determined as 47.3%.

On to `Nc1ccc(CNC(=O)NCC(=O)N2CCCO2)cn1` [Compound F585, 1-((6-aminopyridin-3-yl)methyl-3-(2-isoxazolidin-2-yl)-2-oxoethyl)urea], for which the “Inhibition (%)” value on Cyclophilin B (CypB) was 35.0%.

On Cyclophilin B (CypB), `Nc1ccc(CNC(=O)NCC(=O)N2CCCC2c2ccccn2)cn1` (stereo not drawn) [Compound F586, 1-((6-aminopyridin-3-yl)methyl)-3-(2-oxo-2-(2-(pyridin-2-yl)pyrrolidin-1-yl)ethyl)urea] registered an inhibition at 100 µM of 38.4%.

On to `COc1ccccc1C1CCCN1C(=O)CNC(=O)NCc1ccc(N)nc1` (stereo not drawn) [Compound F587, 1-((6-aminopyridin-3-yl)methyl)-3-(2-(2-(2-methoxyphenyl)pyrrolidin-1-yl)-2-oxoethyl)urea], for which, on Cyclophilin B (CypB), at 100 µM the inhibition was 99% and the half-maximal inhibitory concentration (IC50) turned out to be 5.2 µM.

As to `CC(C)N(Cc1cccc2c1OCO2)C(=O)CNC(=O)NCc1ccc(N)nc1` [Compound F590, 1-(((6-aminopyridin-3-yl)methyl)ureido)-N-(benzo[d][1,3]dioxol-4-ylmethyl)-N-isopropylacetamide], the “Inhibition (%)” value on Cyclophilin B (CypB) turned out to be 18.2%.

As to `CSc1cccc(CN(C(=O)CNC(=O)NCc2ccc(N)nc2)C(C)C)c1` [Compound F592, 2-(3-((6-aminopyridin-3-yl)methyl)ureido)-N-isopropyl-N-(3-(methylthio)benzyl)acetamide], the inhibition at 100 µM on Cyclophilin B (CypB) is 18.9%.

Turning to `Cc1noc(C2CCCN2C(=O)CNC(=O)NCc2ccc(N)nc2)n1` (stereo not drawn) [Compound F593, 1-((6-aminopyridin-3-yl)methyl)-3-(2-(2-(3-methyl-1,2,4-oxadiazol-5-yl)pyrrolidin-1-yl)-2-oxoethyl)urea], at Cyclophilin B (CypB), the inhibition at 100 µM worked out at 23.4%.

Take `Nc1ccc(CNC(=O)NCC(=O)N2CCOCC2)cn1` [Compound F594]: the “Inhibition (%)” value on Cyclophilin B (CypB) is on record as 37.0%.

As for `CN(C(=O)CNC(=O)NCc1ccc(N)nc1)C1CCCCC1` [Compound F595, 2-(3-((6-aminopyridin-3-yl)methyl)ureido)-N-cyclohexyl-N-methylacetamide], at Cyclophilin B (CypB), testing at 100 µM gave an inhibition of 29.1%.

With `Nc1ccc(CNC(=O)Nc2cnc3sccn3c2=O)cn1` [Compound F596, 1-((6-aminopyridin-3-yl)methyl)-3-(5-oxo-5H-thiazolo[3,2-c]pyrimidin-6-yl)urea], the “Inhibition (%)” value on Cyclophilin B (CypB) came to 19.8%.

Compound `CN(C(=O)CNC(=O)NCc1ccc(N)nc1)c1ccc(F)cc1` [Compound F597, 2-(3-((6-aminopyridin-3-yl)methyl)ureido)-N-(4-fluorophenyl)-N-methylacetamide] gave an inhibition at 100 µM against Cyclophilin B (CypB) of 46.3%.

At Cyclophilin B (CypB), `CCN(OCc1ccccc1)C(=O)CNC(=O)NCc1ccc(N)nc1` [Compound F599, 2-(3-((6-aminopyridin-3-yl)methyl)ureido)-N-(benzyloxy)-N-ethylacetamide] gave an inhibition at 100 µM of 71.8%.

At Cyclophilin B (CypB), `Nc1ccc(CNC(=O)Nn2cnc3ccccc3c2=O)cc1` [Compound F600, 1-(4-aminobenzyl)-3-(4-oxoquinazolin-3(4H)-yl)urea] registered an inhibition at 100 µM of 65.8%.

“(S)-1-((6-aminopyridin-3-yl)methyl)-3-(2-oxo-2-(2-(pyridin-3-yl)pyrrolidin-1-yl)ethyl)urea [Compound F588]”: the “Inhibition (%)” value on Cyclophilin B (CypB) turned out to be 23.2%.
